# According to patent US20140294994A1, “PHARMACEUTICAL COMPOSITION FOR ELIMINATION OF CANCER STEM CELLS” (priority 2011, published 2014):
# “Also recorded” adds a separate entry of the source.
# What was measured:
# CL141 cells [1] = assay: Side population analysis (Hoechst 33342, flow cytometry); type: cell-based, human
# Protocol: (§1) Single-cell suspensions of cells were detached from dishes with Trypsin-EDTA (Invitrogen) and suspended at 1×10^6 cells/mL in Hank's balanced salt solution (HBSS) supplemented with 3% fetal calf serum and 10 mM Hepes. […] After 90 minutes incubation, the cells were centrifuged immediately for 5 minutes at 300 g and 4° C. and resuspended in ice-cold HBSS. The cells were kept on ice to inhibit efflux of the Hoechst dye, and 1 μg/mL propidium iodide (BD) was added to discriminate dead cells. Finally, these cells were filtered through a 40 μm cell strainer (BD) to obtain single-suspension cells. Cell dual-wavelength analysis and purification were performed on a dual-laser FACS Vantage SE (BD). […] A 610 nm dichroic mirror short-pass (DMSP) was used to separate the emission wavelengths. PI-positive (dead) cells were excluded from the analysis.
# A549 cells [2] = assay: MTT assay (cell viability); type: cell-based, human
# Source text: (§2) In addition to the commonly used cell lines (A549 and H1975), we also established several cell lines including CL83, CL141, CL152, CL25, and CL97 cell lines which were isolated from the pleural effusion of NSCLC patients at the National Taiwan University Hospital. The investigation was approved by the Institutional Review Board of the National Taiwan University Hospital. Informed consent was obtained before pleural effusion was collected.
# A549 cells [3] = assay: Clonogenic assay; type: cell-based, human
# Protocol: The NSCLC cancer cell lines, A549, H1975, CL25, CL83, CL97, CL141, and CL152 were maintained in RPMI medium. Tested cells were seeded respectively in 6 well plates with 10^4 cells per well for 14 days. Each well contained 10 ml RPMI medium as cultured condition for NSCLC cells. […] Trifluoperazine and other tested drugs were added 24 hours after seeding of the cells. The medium and trifluoperazine were changed once on day 4. After the treatments, cells were washed with PBS, and the colonies were fixed with fix solution (acetic acid:methanol=1:3) and stained with 0.5% crystal violet in methanol. After removing the crystal violet carefully and rinse with tap water, the colonies were counted manually.
# CL141 spheroids [4] = assay: Western blotting and immunochemical staining of cancer spheroids; type: cell-based, human; settings: CL141 spheroids, 0, 2.5, 5 and 10 μM, 48 hours
# Protocol: (§3) Cells were lysed in lysis buffer (50 mM Tris-HCl, pH 7.4, 5 mM MgCl2, 1% Nonidet P-40, 150 mM NaCl, 1 mM phenylmethylsulfonyl fluoride). Total protein was isolated and subjected to SDS polyacrylamide gel electrophoresis and electrotransfered onto PVDF membranes (Millipore). Primary antibodies Bax, Bak, Bcl-2, XIAP, Mcl-1, Cleaved Caspase 9, Caspase 3, […], c-Myc, CD44, cyclin D1 were obtained from Cell Signaling, Met was purchased from Santa Cruz and CD133 was from Miltenyi Biotec, and secondary antibodies for anti-mouse and anti-rabbit horseradish preoxidase (HRP)-conjugation were from Chemicon International. The protein detection was performed with enhanced chemiluminescence (ECL™) method captured by a Luminescence Imaging System (LAS-4000™, Fuji Photo Film Co., Ltd).
# CL83 cells [5] = assay: Side population analysis (Hoechst 33342, flow cytometry); type: cell-based, human; settings: 5 μM, untreated 1.54%
# Protocol: as §1
# CL97 cells [6] = assay: as above; type: cell-based, human; settings: 5 μM, untreated 1.9%
# Protocol: as §1
# CL152 cells [7] = assay: Aldefluor assay (ALDH-positive cells); type: cell-based, human; settings: 5 μM, untreated 3.73%
# Protocol: (§4) High aldehyde dehydrogenase (ALDH) enzyme activity was used to detect lung CSC populations in this study. The Aldefluor assay was performed according to the manufacturer's guidelines (StemCell Technologies). Briefly, single cells obtained from cell cultures were incubated in an Aldefluor assay buffer containing an ALDH substrate (bodipy-aminoacetaldehyde, BAAA) for 50 minutes at 37° C. As a negative control, a fraction of cells from each sample was incubated under identical conditions in the presence of an ALDH inhibitor (diethylaminobenzaldehyde, DEAB). Flow cytometry was used to measure the ALDH-positive cell population.
# CL141 cells [8] = assay: Aldefluor assay (ALDH-positive cells); type: cell-based, human
# Protocol: as §4
# CL97-L2G cells = assay: Bulk lung tumor model, bioluminescent imaging; type: in vivo, NOD/SCID mice; settings: 4 weeks, trifluoperazine 5 mg/kg/day i.p., gefitinib 150 mg/kg/day oral gavage, combination trifluoperazine 5 mg/kg/day i.p. + gefitinib 100 mg/kg/day oral
# Protocol: For bulk lung tumor model, CL97-[…] cells were intravenously administered into the animals via tail vein at a concentration of 1×10^6 cells/100 μl PBS. One week post tumor injection, different treatment regimens were started. […] CL97-[…]-bearing mice (both bulk lung tumor and CSC models) were imaged weekly using the IVIS 200 system (Caliper Life Sciences). Data are expressed as fold change in total photon flux/initial total photon flux and were analyzed using Living Image 1.0 software (Caliper Life Sciences). Mice were humanely sacrificed at the end of experiments and lung tumor biopsies were obtained for further analysis.
# CL97 spheroids [9] = assay: Western blotting analysis of cancer spheroids; type: cell-based, human
# Protocol: as §3
# CL97-L2G tumor samples = assay: Protein profiles of tumor biopsies (Western blot); type: in vivo, NOD/SCID mice; settings: tumor biopsies of treated mice
# Protocol: Total cell lysates were harvested from tumor biopsies of mice which received different treatments and their protein profiles were examined.
# as §3
# (§5) . […] CL97-L2G-bearing mice (both bulk lung tumor and CSC models) were imaged weekly using the IVIS 200 system (Caliper Life Sciences). Data are expressed as fold change in total photon flux/initial total photon flux and were analyzed using Living Image 1.0 software (Caliper Life Sciences). Mice were humanely sacrificed at the end of experiments and lung tumor biopsies were obtained for further analysis.
# CL141 cells [10] = assay: Annexin V/PI staining apoptosis analysis; type: cell-based, human; settings: 48 hours, versus control cells
# Protocol: […]. Annexin V/PI staining was performed after treatment with different dosages of trifluoperazine. Both early and late apoptotic cells were counted.
# CL141 spheroids [11] = assay: Soft agar assay (colony formation); type: cell-based, human; settings: 12 days, control 92
# Protocol: Freshly sorted CL141 side population (SP) and non-side population (NSP) cells were counted and plated in triplicate at 200 cells per well in six-well plates coated with 1% agarose. Anchorage-independent growth was assessed after incubation for 10-14 days in culture media with or without trifluoperazine (0, 5 and 10 μM), which was replaced every 4 days. Plates were stained with 0.005% crystal violet, and the colonies were counted manually under a microscope and photographed.
# CL97-L2G spheroids = assay: Prevention experiment, pretreated spheroids orthotopically injected into lung; type: in vivo, NOD/SCID mice; settings: cells pre-treated with 5 μM overnight, versus vehicle-treated control
# Protocol: as §5
# CL83 spheroids [12] = assay: Tumor spheroid assay; type: cell-based, human; settings: 48 hr
# CL141 spheroids [13] = assay: Tumor spheroid assay; type: cell-based, human; settings: 48 hr
# CL83 cells [14] = assay: MTT assay (cell viability); type: cell-based; settings: Homo sapiens; CL83 cell line, 48 hour incubation; read-out: IC50 for trifluoperazine
# Source text: as §2
# H1975 cells = assay: MTT assay (cell viability); type: cell-based; settings: Homo sapiens, NCI-H1975; H1975 cell line, 48 hour incubation; read-out: IC50 for trifluoperazine
# Source text: as §2
# CL25 cells = assay: MTT assay (cell viability); type: cell-based; settings: Homo sapiens; CL25 cell line, 48 hour incubation; read-out: IC50 for trifluoperazine
# Source text: as §2
# CL152 cells [15] = assay: MTT assay (cell viability); type: cell-based; settings: Homo sapiens; CL152 cell line, 48 hour incubation; read-out: IC50 for trifluoperazine
# Source text: as §2
# CL141 cells [16] = assay: MTT assay (cell viability); type: cell-based; settings: Homo sapiens; CL141 cell line, 48 hour incubation; read-out: IC50 for trifluoperazine
# Source text: as §2
# CL97 cells [17] = assay: MTT assay (cell viability); type: cell-based; settings: Homo sapiens; CL97 cell line, 48 hour incubation; read-out: IC50 for trifluoperazine
# Source text: as §2
# CL97 spheroids [18] = assay: Tumor spheroid assay; type: cell-based, human; settings: 48 hr
# CL83 spheroids [19] = assay: Cisplatin response of spheroids versus parental cells (IC50, viability, caspase-3 activity); type: cell-based, human
# Source text: (§6) We selected three gefitinib-resistant NSCLC cell lines, CL141 (wild type EGFR), CL83 (wild type EGFR) and CL97 (EGFR-G719A+T790M acquired resistant mutation) to determine if trifluoperazine could sensitize these cells towards chemotherapeutic agents.
# CL141 spheroids [20] = assay: as above; type: cell-based, human
# Source text: as §6
# CL97 spheroids [21] = assay: as above; type: cell-based, human
# Source text: as §6
# [22] = Homo sapiens, A549 cells, read-out: MTT assay (IC50)
# [23] = A549 cells, read-out: MTT assay (IC50)
compound,measurement,setting,value
CC(=O)c1ccc2c(c1)N(CCCN(C)C)c1ccccc1S2 [Acepromazine],Reduced side population,CL141 cells [1],No
same,IC50,A549 cells [2]; [22],> 10 µM
same,IC50,A549 cells [3]; Homo sapiens,1 to 2.5 µM
CN(C)CCCN1c2ccccc2Sc2ccc(Cl)cc21 [Chlorpromazine],Reduced side population,CL141 cells [1],Yes
same,IC50,A549 cells [2]; [23],5 to 10 µM
same,IC50,A549 cells [3],2.5 to 5 µM
OCCN1CCN(CCCN2c3ccccc3Sc3ccc(C(F)(F)F)cc32)CC1 [Fluphenazine],Reduced side population,CL141 cells [1],No
CN1CCN(CCCN2c3ccccc3Sc3ccc(Cl)cc32)CC1 [Prochlorperazine],Reduced side population,CL141 cells [1],No
CN(C)CCCN1c2ccccc2Sc2ccccc21 [Promazine],Reduced side population,CL141 cells [1],Yes
same,IC50,A549 cells [2]; [22],> 10 µM
CN1CCN(CCCN2c3ccccc3Sc3ccc(C(F)(F)F)cc32)CC1 [Trifluoperazine],CD44 and CD133 expression,CL141 spheroids [4],dose-dependently down-regulated
same,percentage of side population cells after treatment,CL83 cells [5],significantly decreased
same,Reduced side population,CL141 cells [1],Yes
same,percentage of side population cells after treatment,CL97 cells [6],significantly decreased
same,ALDH-positive cell population after treatment,CL152 cells [7],1.08%
same,ALDH-positive cell population after treatment,"CL141 cells [8]; CL141 cells, 5 μM, untreated 4.31%",0.84%
same,percentage of ALDH+ CL141 cells,CL141 cells [8]; trifluoperazine 10 μM alone or combined with 5 μM gefitinib,moderately decreased
same,tumor burden (fold change in bioluminescence intensity),CL97-L2G cells,significantly reduced tumor burden; also recorded: significantly lower tumor burden
same,"Bax, Bak, cleaved PARP, caspase-3 and caspase-9 levels",CL97 spheroids [9]; CL97 cancer spheroids,increased dose-dependently
same,"anti-apoptotic Bcl-2, XIAP and Mcl-1 levels",CL97 spheroids [9]; CL97 cancer spheroids,decreased
same,CD44 and CD133 expression,"CL97 spheroids [9]; CL97 spheroids, 0, 2.5, 5 and 10 μM, 48 hours",dose-dependently down-regulated
same,"Cyclin D1, c-Myc and c-Met expression","CL97 spheroids [9]; CL97 spheroids, 48 hr",decreased
same,Cyclin D1 expression in tumor samples,CL97-L2G tumor samples,suppressed
same,activated form of caspase 3 in tumor samples,CL97-L2G tumor samples,increased
same,Annexin V-positive cells,CL141 cells [10],dose-dependent increase
same,mean colony number on soft agar,CL141 spheroids [11]; 5 μM,32
same,mean colony number on soft agar,CL141 spheroids [11]; 10 μM,8
same,IC50,"A549 cells [2]; Homo sapiens, A549 cell line, read-out: IC50 for trifluoperazine",> 10 µM
same,IC50,A549 cells [2]; [22],> 10 µM
same,in-situ tumor growth (fold change in BLI),CL97-L2G spheroids,significantly delayed and suppressed; also recorded: delayed and significantly reduced in-situ tumor growth
same,IC50,A549 cells [3]; Homo sapiens,1.25 to 2.5 µM
same,size and number of spheroids,CL83 spheroids [12],dose-dependently decreased
same,size and number of spheroids,CL141 spheroids [13],dose-dependently decreased
same,IC50,CL83 cells [14],14 µM
same,IC50,H1975 cells,15 µM
same,IC50,CL25 cells,13 µM
same,IC50,CL152 cells [15],12 µM
same,IC50,CL141 cells [16],8.5 µM
same,IC50,CL97 cells [17],7.2 µM
same,size and number of spheroids,CL97 spheroids [18],dose-dependently decreased
CN(C)CCCN1c2ccccc2Sc2ccc(C(F)(F)F)cc21 [Triflupromazine],Reduced side population,CL141 cells [1],Yes
same,IC50,A549 cells [2]; [22],> 10 µM
N.N.[Cl][Pt][Cl] [cisplatin],IC50 of spheroids compared with parental cells,CL83 spheroids [19],significantly higher IC50
same,caspase-3 activity of spheroids compared with parental cells,"CL83 spheroids [19]; 10 μM, 24 hours",lower caspase-3 activity
same,viability of spheroids compared with parental cells,"CL83 spheroids [19]; 10 μM, 24 hours",higher viability
same,IC50 of spheroids compared with parental cells,CL141 spheroids [20],significantly higher IC50
same,caspase-3 activity of spheroids compared with parental cells,"CL141 spheroids [20]; 10 μM, 24 hours",lower caspase-3 activity
same,viability of spheroids compared with parental cells,"CL141 spheroids [20]; 10 μM, 24 hours",higher viability
same,IC50 of spheroids compared with parental cells,CL97 spheroids [21],significantly higher IC50
same,caspase-3 activity of spheroids compared with parental cells,"CL97 spheroids [21]; 10 μM, 24 hours",lower caspase-3 activity
same,viability of spheroids compared with parental cells,"CL97 spheroids [21]; 10 μM, 24 hours",higher viability
COc1cc2ncnc(Nc3ccc(F)c(Cl)c3)c2cc1OCCCN1CCOCC1 [gefitinib],tumor burden (fold change in bioluminescence intensity),CL97-L2G cells,not significantly different
same,tumor burden (fold change in bioluminescence intensity),CL97-L2G cells; listed as genfitnib,no effects in suppressing tumor recurrence
same,c-Myc and β-catenin expression in tumor samples,CL97-L2G tumor samples,did not significantly influence
Pherphenazine [Perphenazine],Reduced side population,CL141 cells [1],Yes
same,IC50,A549 cells [2]; [23],> 10 µM
same,IC50,A549 cells [3],5 to 10 µM
Promethazine,Reduced side population,CL141 cells [1],No
same,IC50,A549 cells [2]; [23],> 10 µM
same,IC50,A549 cells [3],5 to 10 µM
Thioridazine,Reduced side population,CL141 cells [1],Yes
